Assay results from the supplement of paper PMC4862054.

Legend:
Conditions in all cases: 72 h
[1] = test system: CAL-51
Summary of the method: (§1)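 Each 384-well plate was pre-loaded with compound dissolved in 5 µl medium, received breast cancer cells in 20 µl suspension, and was incubated 72 h. A 2.5 µl addition of CellTiter-Blue for 2 h at 37 °C was followed by a fluorescence read at 560/590 nm. Data were normalised per plate to vehicle and a positive kill control and checked by Z'-factor. EC50 was fitted from the percent-inhibition dose-response curve, censored at the highest concentration, excluding rows with a drug sensitivity score of zero.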

[2] = test system: CAL-85-1
Summary of the method: as §1

[3] = test system: DU-4475
Summary of the method: as §1

[4] = test system: BT-549
Summary of the method: as §1

[5] = test system: Hs578T
Summary of the method: as §1

[6] = test system: MDA-MB-468
Summary of the method: as §1

[7] = test system: SK-BR-3
Summary of the method: as §1

[8] = test system: HCC1599
Summary of the method: (§2)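 In this assay, breast cancer cell lines spent 72 h with compound at 5 concentrations in 10-fold steps over a compound-specific 10,000-fold range. The first readout was cell death by CellTox Green fluorescence, and the second was viability by CellTiter-Glo luminescence, each normalised per plate to 0.1 % DMSO and a positive kill control. EC50 came from the dose-response curves, censored at the top concentration.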

[9] = test system: SK-BR-3; remark: listed apart in the source
Summary of the method: as §2

[10] = test system: MDA-MB-468; remark: listed apart in the source
Summary of the method: as §2

[11] = test system: HDQ-P1
Summary of the method: as §1

[12] = test system: BT-474
Summary of the method: as §1

[13] = test system: HCC1143
Summary of the method: as §1

[14] = test system: MDA-MB-436
Summary of the method: as §1

[15] = test system: MFM-223
Summary of the method: as §1

[16] = test system: HDQ-P1; remark: listed apart in the source
Experimental: (§3)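 Drug sensitivity and resistance testing (DSRT) of breast cancer cell lines in 384-well plates, 5 concentrations in 10-fold dilutions over a compound-specific 10,000-fold range. After 72 h, cytotoxicity was read by CellTox Green fluorescence and viability by CellTiter-Glo luminescence (multiplexed), normalised to DMSO and benzethonium chloride controls. EC50 is the inflection point of the fitted dose-response curve (bottom asymptote free, so it can be relative for partial curves) and is censored at the highest tested concentration. Rows with DSS 0 (no meaningful response) were excluded.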

[17] = test system: CAL-120
Summary of the method: as §2

[18] = test system: BT-474; remark: listed apart in the source
Summary of the method: as §2

[19] = test system: CAL-85-1; remark: listed apart in the source
Summary of the method: as §2

[20] = test system: HDQ-P1; remark: listed apart in the source
Summary of the method: as §2

[21] = test system: MCF-10A
Summary of the method: as §2

[22] = test system: MDA-MB-453
Summary of the method: as §2

[23] = test system: BT-474; remark: listed apart in the source
Experimental: as §3

[24] = test system: CAL-85-1; remark: listed apart in the source
Experimental: as §3

[25] = test system: MDA-MB-436; remark: listed apart in the source
Experimental: as §3

[26] = test system: MFM-223; remark: listed apart in the source
Summary of the method: as §2

[27] = test system: CAL-148
Summary of the method: as §2

[28] = test system: CAL-51; remark: listed apart in the source
Summary of the method: as §2

[29] = test system: MDA-MB-436; remark: listed apart in the source
Summary of the method: as §2

[30] = test system: HCC1599; remark: listed apart in the source
Summary of the method: as §1

[31] = test system: CAL-51; remark: listed apart in the source
Experimental: as §3

CCN(CCCOc1ccc2c(Nc3cc(CC(=O)Nc4cccc(F)c4)[nH]n3)ncnc2c1)CCOP(=O)(O)O [Barasertib]
EC50, CellTiter-Blue viability [1]: 37.9 nM | EC50, CellTiter-Blue viability [2]: 9.39 nM | EC50, CellTiter-Blue viability [3]: 375 nM | EC50, CellTiter-Blue viability [4]: 23.1 nM | EC50, CellTiter-Blue viability [5]: 12.5 nM | EC50, CellTiter-Blue viability [6]: 44.5 nM

Cn1c(CCCC(=O)O)nc2cc(N(CCCl)CCCl)ccc21 [Bendamustine]
EC50, CellTiter-Blue viability [7]: > 10000 nM

C=C(c1ccc(C(=O)O)cc1)c1cc2c(cc1C)C(C)(C)CCC2(C)C [Bexarotene]
EC50, CellTiter-Glo [8]: 165 nM | EC50, CellTiter-Glo [9]: 254 nM

C[C@@H](Oc1cc(-c2cnn(C3CCNCC3)c2)cnc1N)c1c(Cl)ccc(F)c1Cl [Crizotinib]
EC50, CellTiter-Glo [10]: > 1000 nM | EC50, CellTiter-Blue viability [1]: 3140 nM | EC50, CellTiter-Blue viability [2]: 6530 nM | EC50, CellTiter-Blue viability [3]: 4940 nM | EC50, CellTiter-Blue viability [11]: 6970 nM | EC50, CellTiter-Blue viability [12]: 3540 nM | EC50, CellTiter-Blue viability [4]: 7180 nM | EC50, CellTiter-Blue viability [13]: 8170 nM | EC50, CellTiter-Blue viability [5]: 7690 nM | EC50, CellTiter-Blue viability [14]: 275 nM | EC50, CellTiter-Blue viability [6]: 3640 nM | EC50, CellTiter-Blue viability [15]: 3720 nM | EC50, CellTiter-Blue viability [7]: 4160 nM | EC50, CellTox Green [16]: > 1000 nM

CN(C)/N=N/c1[nH]cnc1C(N)=O [Dacarbazine]
EC50, CellTiter-Glo [17]: > 10000 nM

COc1cc2ncnc(Nc3ccc(F)c(Cl)c3)c2cc1NC(=O)/C=C/CN1CCCCC1 [Dacomitinib]
EC50, CellTiter-Glo [18]: > 1000 nM | EC50, CellTiter-Glo [19]: 56.8 nM | EC50, CellTiter-Glo [20]: 3.24 nM | EC50, CellTiter-Glo [21]: 6.27 nM | EC50, CellTiter-Glo [22]: 74.8 nM | EC50, CellTiter-Glo [10]: 179 nM | EC50, CellTiter-Glo [9]: 26.3 nM | EC50, CellTox Green [23]: 82.4 nM | EC50, CellTox Green [24]: 564 nM | EC50, CellTox Green [25]: 319 nM

Cc1ccc(-n2nc(C(C)(C)C)cc2NC(=O)Nc2ccc(OCCN3CCOCC3)c3ccccc23)cc1 [Doramapimod]
EC50, CellTiter-Glo [10]: 937 nM | EC50, CellTiter-Glo [26]: 2800 nM | EC50, CellTiter-Blue viability [2]: 27.3 nM

C#Cc1cccc(Nc2ncnc3cc(OCCOC)c(OCCOC)cc23)c1 [Erlotinib]
EC50, CellTiter-Glo [17]: 9090 nM | EC50, CellTiter-Glo [27]: 881 nM | EC50, CellTiter-Glo [28]: 1130 nM | EC50, CellTiter-Glo [19]: 761 nM | EC50, CellTiter-Glo [20]: 28.7 nM | EC50, CellTiter-Glo [21]: 96 nM | EC50, CellTiter-Glo [29]: 7110 nM | EC50, CellTiter-Glo [9]: 3440 nM | EC50, CellTiter-Blue viability [2]: 754 nM | EC50, CellTiter-Blue viability [11]: 90.2 nM | EC50, CellTiter-Blue viability [12]: 1750 nM | EC50, CellTiter-Blue viability [30]: 103 nM | EC50, CellTiter-Blue viability [14]: 840 nM | EC50, CellTiter-Blue viability [6]: 1510 nM | EC50, CellTiter-Blue viability [7]: 4990 nM | EC50, CellTox Green [31]: 3160 nM | EC50, CellTox Green [24]: 1590 nM
